Each structure is given as a SMILES string.

Here are results for nine compounds from publication PMC3038857, “Using Nuclear Receptor Activity to Stratify Hepatocarcinogens” (PLoS ONE, 2011).

The test system of one data set is ABCB1. Briefly: CLZD_ABCB1: Change in expression of ABCB1 (primary human hepatocytes). It counts as cell-based. Conditions: 24 hr, scale not given, looks like -log10 of molar active concentration, 0 = no activity. In a few lines:
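Read-out: mRNA change by multiplexed quantitative nuclease protection assay. Primary human hepatocytes; 5 concentrations, 0.004-40 µM; exposures 6, 24, 48 hr.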

A further data set deals with ABCB11. Briefly: CLZD_ABCB11: Change in expression of ABCB11 (primary human hepatocytes). Conditions: 24 hr, scale not given, looks like -log10 of molar active concentration, 0 = no activity. The data set is classed as cell-based. In a few lines:
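Chemicals are tested in human hepatocyte primary cultures over 0.004-40 µM (5 concentrations) for 6, 24 or 48 hr, and concentration- and time-dependent transcript changes are read by quantitative nuclease protection assay.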

Another data set has as its target T1, PXR (NR1I2) (Homo sapiens, UniProt O75469).
T1 sequence (O75469 1-434): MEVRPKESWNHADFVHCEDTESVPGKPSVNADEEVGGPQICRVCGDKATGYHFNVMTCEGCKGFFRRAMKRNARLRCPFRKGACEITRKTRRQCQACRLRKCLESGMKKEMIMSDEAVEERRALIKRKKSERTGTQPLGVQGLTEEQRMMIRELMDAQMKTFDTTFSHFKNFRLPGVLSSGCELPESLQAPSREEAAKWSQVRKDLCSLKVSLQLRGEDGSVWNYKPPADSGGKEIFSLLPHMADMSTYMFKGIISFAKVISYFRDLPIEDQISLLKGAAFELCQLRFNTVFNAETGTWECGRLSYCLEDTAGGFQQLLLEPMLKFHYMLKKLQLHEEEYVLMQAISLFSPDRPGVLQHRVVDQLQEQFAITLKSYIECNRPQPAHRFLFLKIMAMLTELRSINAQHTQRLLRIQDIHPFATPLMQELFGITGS
Description: NVS_NR_hPXR: Human PXR Fluormone PXR (SXR) green (cell-free HTS). It counts as binding. The settings on record: scale not given, looks like -log10 of molar active concentration, 0 = no activity. In a few lines: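 Responses were normalized to same-plate solvent controls as percent of neutral control. AC50 values came from Hill-equation fits of concentration-response curves.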

In a further data set the test system is Rat Liver. The settings on record: rat chronic study, liver, preneoplastic lesion; coded 6 / 0, code not explained here; ref ToxRefDB; cited from earlier work.
A further data set deals with T2, PPARg (PPARG) (Homo sapiens, UniProt P37231).
T2 sequence (P37231 1-505): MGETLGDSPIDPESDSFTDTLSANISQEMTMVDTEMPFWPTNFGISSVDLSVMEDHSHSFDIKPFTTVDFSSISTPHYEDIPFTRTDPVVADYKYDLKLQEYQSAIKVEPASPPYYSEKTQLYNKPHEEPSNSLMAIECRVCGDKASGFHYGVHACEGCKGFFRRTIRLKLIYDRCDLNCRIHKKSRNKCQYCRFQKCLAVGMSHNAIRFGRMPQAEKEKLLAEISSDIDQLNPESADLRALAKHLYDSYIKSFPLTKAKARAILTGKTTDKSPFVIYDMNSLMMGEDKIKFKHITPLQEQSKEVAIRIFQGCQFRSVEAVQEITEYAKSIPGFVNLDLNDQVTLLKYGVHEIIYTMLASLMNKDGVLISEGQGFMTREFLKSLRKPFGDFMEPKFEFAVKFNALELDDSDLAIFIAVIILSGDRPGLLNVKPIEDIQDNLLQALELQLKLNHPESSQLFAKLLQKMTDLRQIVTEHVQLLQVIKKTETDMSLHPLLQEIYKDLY
Briefly: NCGC_PPARg_Agonist: GAL4 BLAM Reporter gene assay: PPARg. The data set is classed as cell-based. Also on record: expressed in transfected cells; host or cells: HEK293. The settings on record: agonist mode; scale not given, looks like -log10 of molar active concentration; 0 = no activity. In a few lines: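 Cell-based GAL4 beta-lactamase reporter assays run at NIH Chemical Genomics Center as part of Tox21. Curve fits required R^2 ≥0.5; values where only the highest concentration exceeded 50% activity were excluded.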
For orientation: Reporter assays use an easily measured gene product as a stand-in for the process of interest.

In turn, `C=CCOC(=O)C(C)(C)OC(=O)c1cc(-n2c(=O)cc(C(F)(F)F)n(C)c2=O)ccc1Cl` [r47] came in with a CLZD_ABCB1_24 with ABCB1 of 0. In the data set on ABCB11, this compound had a CLZD_ABCB11_24 of 0. The NVS_NR_hPXR at PXR (NR1I2) was found to be 0. Moreover, the CHR_Rat_Liver_2_PreneoplasticLesion in the data set with Rat Liver is on record as 0. This compound also gave an NCGC_PPARg_Agonist at PPARg (PPARG) of 0.

As to `CCSC(=O)N(CC(C)C)CC(C)C` [r49], the CLZD_ABCB1_24 with ABCB1 is listed as 0. This compound displayed a CLZD_ABCB11_24 in the data set with ABCB11 of 0. Moreover, the NVS_NR_hPXR at PXR (NR1I2) is reported as 4.412. Also, the CHR_Rat_Liver_2_PreneoplasticLesion with Rat Liver is 0. In addition, on PPARg (PPARG), the NCGC_PPARg_Agonist is recorded as 0.

In the data set with ABCB1, `CC1=C(C(=O)Nc2ccccc2)SCCO1` [r53] displayed a CLZD_ABCB1_24 of 0. The same compound displayed a CLZD_ABCB11_24 in the data set on ABCB11 of 0. At PXR (NR1I2), this compound came in with an NVS_NR_hPXR of 0. Also, in the data set on Rat Liver, the CHR_Rat_Liver_2_PreneoplasticLesion is given as 0. Besides, on PPARg (PPARG), the NCGC_PPARg_Agonist worked out at 0.

As to `CCOC(=O)C(Cl)Cc1cc(-n2nc(C)n(C(F)F)c2=O)c(F)cc1Cl` (stereo not drawn) [r54], the CLZD_ABCB1_24 in the data set with ABCB1 came to 0. The compound further yielded a CLZD_ABCB11_24 in the data set on ABCB11 of 0. This compound also displayed an NVS_NR_hPXR at PXR (NR1I2) of 0. The CHR_Rat_Liver_2_PreneoplasticLesion with Rat Liver is listed as 0. The compound further displayed an NCGC_PPARg_Agonist at PPARg (PPARG) of 0.

Compound `Nc1cnn(-c2ccccc2)c(=O)c1Cl` [r56] displayed a CLZD_ABCB1_24 with ABCB1 of 0. The same compound gave a CLZD_ABCB11_24 with ABCB11 of 0. For the same compound, on PXR (NR1I2), the NVS_NR_hPXR turned out to be 0. Also, the CHR_Rat_Liver_2_PreneoplasticLesion in the data set with Rat Liver is reported as 0. At PPARg (PPARG), this compound had an NCGC_PPARg_Agonist of 0.

With `CC(C)OC(=O)Nc1cccc(Cl)c1` [r59], the CLZD_ABCB1_24 with ABCB1 worked out at 0. The CLZD_ABCB11_24 in the data set with ABCB11 is on record as 0. On PXR (NR1I2), the NVS_NR_hPXR is given as 0. Besides, in the data set on Rat Liver, the CHR_Rat_Liver_2_PreneoplasticLesion is recorded as 6. The compound further gave an NCGC_PPARg_Agonist on PPARg (PPARG) of 0.

Take `COc1nc(C)nc(NC(=O)NS(=O)(=O)c2ccccc2Cl)n1` [r62]: the CLZD_ABCB1_24 with ABCB1 is recorded as 0. In addition, the CLZD_ABCB11_24 with ABCB11 was determined as 0. For the same compound, the NVS_NR_hPXR on PXR (NR1I2) came out at 0. In addition, the CHR_Rat_Liver_2_PreneoplasticLesion in the data set on Rat Liver is on record as 0. In addition, at PPARg (PPARG), the NCGC_PPARg_Agonist turned out to be 0.

Turning to `COc1nc(C)nc(NC(=O)NS(=O)(=O)c2ccccc2Cl)n1` [r63], the CLZD_ABCB1_24 in the data set on ABCB1 was found to be 0. Besides, the CLZD_ABCB11_24 with ABCB11 is 0. The compound further displayed an NVS_NR_hPXR on PXR (NR1I2) of 0. Moreover, the CHR_Rat_Liver_2_PreneoplasticLesion with Rat Liver is 0. Further, on PPARg (PPARG), the NCGC_PPARg_Agonist is listed as 0.

In turn, `Cc1ccccc1CO[C@@H]1C[C@@]2(C(C)C)CC[C@]1(C)O2` [r64] displayed a CLZD_ABCB1_24 in the data set with ABCB1 of 0. This compound displayed a CLZD_ABCB11_24 with ABCB11 of 0. On PXR (NR1I2), this compound yielded an NVS_NR_hPXR of 0. Moreover, the CHR_Rat_Liver_2_PreneoplasticLesion with Rat Liver was 0. The compound further registered an NCGC_PPARg_Agonist at PPARg (PPARG) of 0.
